In data set [1] the test system is KB-VCR cells. Description: Cell cytotoxicity assay (CCK-8), KB-VCR. Format: cell-based, human. Particulars: for IC50: Homo sapiens, 72 h; for IC50 / FR (fold-resistance): chemotherapeutic alone. The procedure: (§1) Briefly, cells (2,000/well) were seeded in 96-well plate and cultured at 37°C in 5% CO2 for 24h. […] After 72 h of treatment, 15μL Cell Counting Kit-8 solution was added to each well followed by another 2 h of incubation. The absorbance at 450nm and 600nm were then measured using a SpectraMax M5 microplate reader. The curves of growth inhibition rate were fitted with GraphPad Prism 5 and the IC50 values were calculated. Each assay was conducted three times in quadruplicate

The subject of data set [2] is KB-WT cells. The experiment in a line: Cell cytotoxicity assay (CCK-8), KB-WT. Format: cell-based, human. The following applies: for IC50: Homo sapiens. Here is the method:
as §1

The target of data set [3] is T1, recombinant human ABCB1 membranes (Homo sapiens, UniProt P08183).
T1 construct: purchased
Description: P-gp ATPase activity assay (Pgp-Glo, VER-stimulated). Format: biochemical. An excerpt: Sodium orthovanadate (Na3VO4) was used as an ABCB1 ATPase inhibitor. […] Luminescence was initiated by ATP detection buffer.

For data set [4], the target named is T2, P-gp (Homo sapiens, UniProt P08183).
T2 construct: expressed in transfected cells; host or cells: MDCK-MDR1 cells (canine kidney cells)
The experiment in a line: Calcein-AM P-gp inhibition assay in MDCK-MDR1 cells. Format: cell-based. The following applies: 2μM GF120918 = 100%. The procedure: The calcein-AM assay was optimized from previous studies.[28, 29] MDCK-MDR1 cells were cultured as described above. Cells were seeded at 8,000 cells/well (100μl of culture medium) in 96-well flat clear bottom black polystyrene plates. The medium was changed 24h after seeding and the assay was performed 48 h later. On the day of study, the medium was removed and plates were washed three times with phosphate-buffered saline (PBS). Test compounds at various concentrations were added to plates in 50μl of transport buffer containing 0.5% DMSO as solvent. Plates were incubated at 37°C for 30 min. Calcein-AM was added in 50μl of PBS to yield a final concentration of 10μM.
P-gp inhibition was calculated as described previously.[29] The curves of inhibition rates were fitted with GraphPad Prism 5 and the IC50 values were calculated. Each assay was conducted three times in quadruplicate.

Data set [5] deals with KB-WT xenografts. Description: KB-WT tumor xenograft model. Format: in vivo, Balb/c nude mice. Particulars: day 21, mean±SEM. The text has this:
(§2) All the animal experiments were approved by the Institutional Animal Care and Use Committee at China Pharmaceutical University (Permit Number: CPU1201P) and carried out in strict accordance with the recommendations in the Guide for the Care and Use of Laboratory Animals of AAALAC international. Animals were acclimated for 5 days prior to study initiation. […] If any animal was moribund due to treatment associated toxicity or tumor over-growth (≥ 2000 mm^3) before scheduled sacrifice, it would be euthanized. At the endpoint, the animals were euthanized by using CO2 and all efforts were made to minimize suffering.
(§3) Body weight and the tumor growth were monitored twice a week. Tumor size was measured to the nearest 0.1 mm using vernier caliper and applying the formula: Tumor volume = length × width^2 × 0.5. Efficacy data was graphically represented as the mean tumor volume ± standard error of the mean (SEM). Tumors were collected for further analysis after last measurement.

In data set [6] the test system is KB-VCR xenografts. Description: KB-VCR tumor xenograft model. Format: in vivo, Balb/c nude mice. The following applies: for mean tumor volume / tumor weight: day 21.
Source text: as §2, §3

Data set [7] concerns the target T2, P-gp. The experiment in a line: MDCK-MDR1 monolayer transport assay. Format: cell-based. The following applies: dog.
Description: MDCK-MDR1 cells could differentiate into columnar epithelium with tight junctions in three days later to form cell monolayer. […] If a drug was a P-gp substrate, its permeation from apical side (A) to basal side (B) would be inhibited and reduced, while the permeation from B to A would not be affected. When a P-gp inhibitor was added, the permeation of P-gp substrate from A to B could be increased.
MDCK-MDR1 cells were cultured in Dulbecco's MEM (DMEM) Medium supplemented with 10% fetal bovine serum (FBS) and 2 mM L-glutamine. […] The plates were incubated at 37°C with 5% CO2/95% air for 4 days and subsequently used for assays. […] Plates were incubated for 90 min in 5% CO2/95% air, 37°C CO2 incubator with slowly shaking (60 rpm). Apical and basolateral compartments were sampled at the end of the transport experiment and the tested substance concentrations in both compartments were determined by LC-MS/MS.
The apparent permeability (Papp) and efflux ratio were calculated based on the equations reported previously.[33]
Setting [8] is: KB-WT, chemotherapeutic alone, 72 h.
The mark [9] stands for this setting: 2 mg/kg modulator + VCR 2 mg/kg.
Setting [10] is: 5 mg/kg modulator + VCR 2 mg/kg.

Where “and” joins values, the source holds several entries; their conditions need not be identical. Equal entries are not always repeated.

T1 sequence (P08183 whole entry): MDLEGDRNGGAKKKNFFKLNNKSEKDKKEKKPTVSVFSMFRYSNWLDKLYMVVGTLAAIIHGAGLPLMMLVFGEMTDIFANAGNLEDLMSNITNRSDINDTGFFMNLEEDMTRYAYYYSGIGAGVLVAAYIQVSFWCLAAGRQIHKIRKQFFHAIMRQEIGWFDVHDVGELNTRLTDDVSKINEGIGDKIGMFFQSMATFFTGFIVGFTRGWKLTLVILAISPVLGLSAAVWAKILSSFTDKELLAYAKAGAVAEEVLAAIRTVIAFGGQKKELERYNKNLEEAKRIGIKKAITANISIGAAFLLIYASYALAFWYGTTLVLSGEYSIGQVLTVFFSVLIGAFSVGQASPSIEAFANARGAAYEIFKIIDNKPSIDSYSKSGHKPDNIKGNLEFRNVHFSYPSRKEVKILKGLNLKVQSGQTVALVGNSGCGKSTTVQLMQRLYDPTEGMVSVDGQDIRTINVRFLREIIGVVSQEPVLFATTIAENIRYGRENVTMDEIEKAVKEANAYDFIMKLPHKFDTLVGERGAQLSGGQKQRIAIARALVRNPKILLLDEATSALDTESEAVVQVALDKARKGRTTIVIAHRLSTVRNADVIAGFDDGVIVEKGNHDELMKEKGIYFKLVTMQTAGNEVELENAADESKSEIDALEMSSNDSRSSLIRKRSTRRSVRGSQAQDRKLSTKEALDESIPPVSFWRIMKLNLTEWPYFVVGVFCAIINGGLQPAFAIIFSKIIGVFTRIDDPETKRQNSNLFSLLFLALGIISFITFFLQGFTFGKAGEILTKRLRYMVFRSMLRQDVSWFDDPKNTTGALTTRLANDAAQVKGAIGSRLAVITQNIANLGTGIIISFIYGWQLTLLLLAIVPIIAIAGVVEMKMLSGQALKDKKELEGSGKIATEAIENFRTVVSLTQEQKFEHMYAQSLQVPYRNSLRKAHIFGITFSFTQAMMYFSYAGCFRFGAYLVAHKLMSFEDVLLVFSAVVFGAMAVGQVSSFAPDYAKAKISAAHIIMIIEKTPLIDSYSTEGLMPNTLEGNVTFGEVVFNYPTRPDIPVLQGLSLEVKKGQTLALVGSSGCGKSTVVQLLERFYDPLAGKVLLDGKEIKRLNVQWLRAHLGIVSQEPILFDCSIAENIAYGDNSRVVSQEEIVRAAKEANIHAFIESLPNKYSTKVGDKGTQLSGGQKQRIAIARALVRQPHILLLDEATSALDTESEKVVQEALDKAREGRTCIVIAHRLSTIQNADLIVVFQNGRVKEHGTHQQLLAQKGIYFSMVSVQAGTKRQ
T2 sequence (P08183 whole entry): as above

As for `COc1cccc2c1C(=O)c1c(O)c3c(c(O)c1C2=O)C[C@@](O)(C(=O)CO)C[C@@H]3O[C@H]1C[C@H](N)[C@H](O)[C@H](C)O1` [DOX, Doxorubicin], the IC50 in data set [1] came to 245 ± 39.8 nM; in data set [2] (setting [8]) it was 47.3 ± 19.7 nM. Further, the “FR (fold-resistance)” value in data set [1] was found to be 1.00; in data set [2] (KB-WT, chemotherapeutic alone) it was 1.00.
As for `CCCCCCCCNC(=NC#N)N1CCc2cc(OC)c(OC)cc2C1Cc1ccc(OC)c(OC)c1` (stereo not shown) [HZ08], the ATP consumed is recorded as 74.09±4.02 pmol ATP consumed/ μg P-gp / min in data set [3] (VER 100μM + HZ08 0.625μM); 73.10±1.34 pmol ATP consumed/ μg P-gp / min in data set [3] (VER 100μM + HZ08 1.25μM); 66.82±0.87 pmol ATP consumed/ μg P-gp / min in data set [3] (VER 100μM + HZ08 5μM); 63.11±1.71 pmol ATP consumed/ μg P-gp / min in data set [3] (VER 100μM + HZ08 10μM); 55.21±0.43 pmol ATP consumed/ μg P-gp / min in data set [3] (VER 100μM + HZ08 20μM); 41.25±3.00 pmol ATP consumed/ μg P-gp / min in data set [3] (VER 100μM + HZ08 40μM). Further, the ATP consumed in data set [3] (VER 100μM + HZ08 80μM) was 34.48±1.56 pmol ATP consumed/ μg P-gp / min; in data set [3] (VER 100μM + HZ08 […]), 69.42±1.31 pmol ATP consumed/ μg P-gp / min. In addition, the Fold stimulation in data set [3] (VER 100μM + HZ08 0.625μM) turned out to be 4.31; in data set [3] (VER 100μM + HZ08 1.25μM) it was 4.26; in data set [3] (VER 100μM + HZ08 5μM), 3.89; in data set [3] (VER 100μM + HZ08 10μM), 3.67; in data set [3] (VER 100μM + HZ08 20μM), 3.21; in data set [3] (VER 100μM + HZ08 40μM), 2.40. The results for the Fold stimulation in data set [3] (VER 100μM + HZ08 80μM) and in data set [3] (VER 100μM + HZ08 […]) were 2.01 and 4.04, respectively. The “cytotoxicity as single agent” value in data set [1] (CCK-8, concentrations up to 20μM) is given as “no cytotoxicity”; in data set [2] (KB-WT, CCK-8, concentrations up to 20μM), “no cytotoxicity”. Moreover, the “FR of DOX” value in data set [1] (DOX + 5 μM modulator) was found to be 3.84; in data set [1] (DOX + 10 μM modulator), 4.78; in data set [2] (KB-WT, DOX + 5 μM modulator), 0.83; in data set [2] (KB-WT, DOX + 10 μM modulator), 1.19. For the same compound, the “FR of PTX” value in data set [1] (PTX + 5 μM modulator) was 120.06; in data set [1] (PTX + 10 μM modulator), 131.04; in data set [2] (KB-WT, PTX + 5 μM modulator), 1.97; in data set [2] (KB-WT, PTX + 10 μM modulator), 2.68. Besides, the “FR of VCR” value in data set [1] (VCR + 5 μM modulator) was 173.46; in data set [1] (VCR + 10 μM modulator), 246.35; in data set [2] (KB-WT, VCR + 5 μM modulator), 1.65; in data set [2] (KB-WT, VCR + 10 μM modulator) it was 3.67. Also, the IC50 in data set [4] was ~2440 nM and 2440 nM. The mean tumor volume is recorded as 1193.11±84.95 mm^3 in data set [5] (setting [9]), 872.92±301.72 mm^3 in data set [5] (setting [10]) and 1536.36±190.04 mm^3 in data set [6] (setting [9]). The tumor weight in data set [5] (setting [9]) stood at 1.050 ± 0.080 g; in data set [5] (setting [10]), 0.845 ± 0.183 g; in data set [6] (setting [9]), 1.222 ± 0.200 g; in data set [6] (setting [10]), 0.954 ± 0.175 g. For the same compound, the “tumor inhibition (tumor volume)” value in data set [6] (5 mg/kg modulator + VCR 2 mg/kg, compared with 2 mg/kg) was “a higher tumor inhibition was observed”.
`CC(=O)O[C@H]1C(=O)[C@@]2(C)[C@H]([C@H](OC(=O)c3ccccc3)[C@]3(O)C[C@H](OC(=O)[C@H](O)[C@@H](NC(=O)c4ccccc4)c4ccccc4)C(C)=C1C3(C)C)[C@]1(OC(C)=O)CO[C@@H]1C[C@@H]2O` [PTX, paclitaxel]: the IC50 in data set [1] is 194 ± 17.7 nM; in data set [2] (setting [8]) it was 3.7 ± 0.9 nM. The “FR (fold-resistance)” value in data set [1] is listed as 1.00; in data set [2] (KB-WT, chemotherapeutic alone), 1.00.
As to `CC[C@]1(O)C[C@H]2CN(CCc3c([nH]c4ccccc34)[C@@](C(=O)OC)(c3cc4c(cc3OC)N(C=O)[C@H]3[C@@](O)(C(=O)OC)[C@H](OC(C)=O)[C@]5(CC)C=CCN6CC[C@]43[C@@H]65)C2)C1` [VCR, Vincristine], the IC50 was 619 ± 158 nM in data set [1], about 1.5 nM in data set [2] and 1.5 ± 0.2 nM in data set [2] (setting [8]). In data set [7], the Papp A→B at 90 min, 1 μM came out at 0.32 ± 0.1 ×10⁻⁶ cm/s. The compound further came in with a Papp B→A at 90 min, 1 μM in data set [7] of 1.99 ± 0.28 ×10⁻⁶ cm/s. For the same compound, the values for the mean tumor volume in data set [5] (VCR 2 mg/kg weekly i.v. alone) and in data set [6] (VCR 2 mg/kg weekly i.v. alone) were 1206.41±132.53 mm^3 and 2009.99±24.57 mm^3, respectively. The compound further yielded a tumor weight in data set [6] (VCR 2 mg/kg alone) of 1.623 ± 0.233 g.
Turning to `COc1ccc(CCN(C)CCCC(C#N)(c2ccc(OC)c(OC)c2)C(C)C)cc1OC` (stereo not shown) [VER, verapamil], the “FR of DOX” value in data set [1] (DOX + 10 μM modulator) was determined as 3.21; in data set [2] (KB-WT, DOX + 10 μM modulator), 1.27. Moreover, the “FR of PTX” value in data set [1] (PTX + 10 μM modulator) is reported as 20.6; in data set [2] (KB-WT, PTX + 10 μM modulator), 2.03. Also, the “FR of VCR” value in data set [1] (VCR + 10 μM modulator) is 82.74; in data set [2] (KB-WT, VCR + 10 μM modulator) it was 1.83.

The IC50 is the concentration that gives 50% inhibition. What is called Papp A→B is how fast a substance crosses the layer from the apical side. Higher therefore signals ready permeation. What is called Papp B→A is how fast a substance crosses the layer from the basolateral side.

The values above are taken from paper PMC4331368, “HZ08 Reverse P-Glycoprotein Mediated Multidrug Resistance In Vitro and In Vivo” (PLoS ONE, 2015).
